From ChEMBL document CHEMBL5154737, “Semisynthesis and biological evaluation of (+)-sclerotiorin derivatives as antitumor agents for the treatment of hepatocellular carcinoma” (Eur J Med Chem, 2022)
Structures can show the parent of a compound that is named as a salt.

Columns and labels:
Bel-7402 [1] = test: Cytotoxicity against human Bel-7402 cells assessed as inhibition rate at 5 uM incubated for 72 hrs by MTT assay relative to control; assay type: functional; set-up: scale not given: the % may be the effect or the level left
Bel-7402 [2] = test: cells; details: Homo sapiens, Bel-7402, 24 h, read-out: Activity
Bel-7402 [3] = test: Cytotoxicity against human Bel-7402 cells assessed as reduction in cell viability incubated for 72 hrs by MTT assay; assay type: functional, cell-based; details: Bel-7402, 72 h
[4] = Cytotoxicity against human Biu-87 cells assessed as reduction in cell viability incubated for 72 hrs by MTT assay; assay type: functional, cell-based; details: BIU87, 72 h
[5] = Cytotoxicity against human HepG2 cells assessed as reduction in cell viability incubated for 72 hrs by MTT assay; assay type: toxicity, cell-based
ECa-109 cell line = test: Cytotoxicity against human Eca-109 cells assessed as reduction in cell viability incubated for 72 hrs by MTT assay; assay type: functional, cell-based; details: ECa-109, 72 h
HeLa = test: Cytotoxicity against human HeLa cells assessed as reduction in cell viability incubated for 72 hrs by MTT assay; assay type: functional, cell-based
PANC-1 = test: Cytotoxicity against human PANC-1 cells assessed as reduction in cell viability incubated for 72 hrs by MTT assay; assay type: functional, cell-based; details: PANC-1, 72 h

Row | Structure (SMILES) | Activity (Bel-7402 [1]) | other results
1 | CC[C@H](C)/C=C(C)/C=C/C1=CC2=C(Cl)C(=O)[C@](C)(O)C(=O)C2=CN1c1cc(OC)cc(OC)c1 | 11.14% | –
2 | CC[C@H](C)/C=C(C)/C=C/C1=CC2=C(Cl)C(=O)[C@](C)(OC(C)=O)C(=O)C2=CN1Cc1ccc(C(F)(F)F)cc1 | 44.16% | –
3 | CC[C@H](C)/C=C(C)/C=C/C1=CC2=C(Cl)C(=O)[C@](C)(OC(C)=O)C(=O)C2=CN1c1ccc(OC)c(OC)c1 | 8.16% | –
4 | N#CC(=C(/N)Sc1ccccc1N)/C(C#N)=C(\N)Sc1ccccc1N | – | viability at 20 µM (Bel-7402 [2]): 88.3%
5 | C#CCN1C=C2C(=O)[C@@](C)(OC(C)=O)C(=O)C(Cl)=C2C=C1/C=C/C(C)=C/[C@@H](C)CC | 6.81% | –
6 | CC[C@H](C)/C=C(C)/C=C/C1=CC2=C(Cl)C(=O)[C@](C)(OC(C)=O)C(=O)C2=CN1c1ccc(C(F)(F)F)cc1 | 28.9% | –
7 | CC[C@H](C)/C=C(C)/C=C/C1=CC2=C(Cl)C(=O)[C@](C)(OC(C)=O)C(=O)C2=CN1Cc1ccc(C)cc1 | 16.2% | –
8 | CC[C@H](C)/C=C(C)/C=C/C1=CC2=C(Cl)C(=O)[C@](C)(O)C(=O)C2=CN1CCc1cccc(C(F)(F)F)c1 | 45.76% | –
9 | CC[C@H](C)/C=C(C)/C=C/C1=CC2=C(Cl)C(=O)[C@](C)(O)C(=O)C2=CN1c1ccc(OC)c(OC)c1 | 5.75% | –
10 | C=CCN1C=C2C(=O)[C@@](C)(OC(C)=O)C(=O)C(Cl)=C2C=C1/C=C/C(C)=C/[C@@H](C)CC | 8.65% | –
11 | CC[C@H](C)/C=C(C)/C=C/C1=CC2=C(Cl)C(=O)[C@](C)(OC(C)=O)C(=O)C2=CN1Cc1ccc(OC)cc1 | 6.58% | –
12 | CC[C@H](C)/C=C(C)/C=C/C1=CC2=C(Cl)C(=O)[C@](C)(OC(C)=O)C(=O)C2=CN1Cc1ccc(C(F)(F)F)nc1 | 21.53% | –
13 | CC[C@H](C)/C=C(C)/C=C/C1=CC2=C(Cl)C(=O)[C@](C)(OC(C)=O)C(=O)C2=CN1Cc1ccc(OC(F)(F)F)cc1 | 27.46% | –
14 | CC[C@H](C)/C=C(C)/C=C/C1=CC2=C(Cl)C(=O)[C@](C)(O)C(=O)C2=CN1Cc1ccc(C(F)(F)F)cc1 | 81.73% | IC50 (Bel-7402 [3]): 1.45 µM; IC50 [4]: 3.1 µM; IC50 at 72 h [5]: 3.36 µM; IC50 (ECa-109 cell line): 1.48 µM; IC50 (HeLa): 2.4 µM; IC50 (PANC-1): 1.44 µM
15 | CC[C@H](C)/C=C(C)/C=C/C1=CC2=C(Cl)C(=O)[C@](C)(O)C(=O)C2=CN1Cc1ccc(OC)cc1 | 36.51% | –
16 | CC[C@H](C)/C=C(C)/C=C/C1=CC2=C(Cl)C(=O)[C@](C)(OC(C)=O)C(=O)C2=CN1Cc1ccc(C(F)(F)F)cn1 | 21.49% | –
17 | CC[C@H](C)/C=C(C)/C=C/C1=CC2=C(Cl)C(=O)[C@](C)(OC(C)=O)C(=O)C2=CN1c1ccc(OC)cc1 | 7.45% | –
18 | CC[C@H](C)/C=C(C)/C=C/C1=CC2=C(Cl)C(=O)[C@](C)(O)C(=O)C2=CN1Cc1ccc(C)cc1 | 20.52% | –
19 | CC[C@H](C)/C=C(C)/C=C/C1=CC2=C(Cl)C(=O)[C@](C)(OC(C)=O)C(=O)C2=CN1c1cc(OC)cc(OC)c1 | 7.94% | –
20 | CC[C@H](C)/C=C(C)/C=C/C1=CC2=C(Cl)C(=O)[C@](C)(OC(C)=O)C(=O)C2=CN1c1ccc(OC(F)(F)F)cc1 | 22.81% | –
21 | CC[C@H](C)/C=C(C)/C=C/C1=CC2=C(Cl)C(=O)[C@](C)(OC(C)=O)C(=O)C2=CN1c1cc(OC)c(OC)c(OC)c1 | 9.61% | –
22 | COc1cccc2c1C(=O)c1c(O)c3c(c(O)c1C2=O)C[C@@](O)(C(=O)CO)C[C@@H]3O[C@H]1C[C@H](N)[C@H](O)[C@H](C)O1 [DOXORUBICIN HYDROCHLORIDE] | – | IC50 (Bel-7402 [3]): 0.369 µM; IC50 at 72 h [5]: 0.45 µM; IC50 (ECa-109 cell line): 0.201 µM; IC50 (HeLa): 0.602 µM
23 | CC[C@H](C)/C=C(C)/C=C/C1=CC2=C(Cl)C(=O)[C@](C)(O)C(=O)C2=CN1c1ccc(OC(F)(F)F)cc1 | 43.16% | –
24 | CC[C@H](C)/C=C(C)/C=C/C1=CC2=C(Cl)C(=O)[C@](C)(O)C(=O)C2=CN1c1ccc(C(F)(F)F)cc1 | 63.16% | –
25 | CC[C@H](C)/C=C(C)/C=C/C1=CC2=C(Cl)C(=O)[C@](C)(O)C(=O)C2=CN1Cc1ccc(C(F)(F)F)nc1 | 12.09% | –
26 | CC[C@H](C)/C=C(C)/C=C/C1=CC2=C(Cl)C(=O)[C@](C)(O)C(=O)C2=CN1c1cc(OC)c(OC)c(OC)c1 | 11.27% | –
27 | CC[C@H](C)/C=C(C)/C=C/C1=CC2=C(Cl)C(=O)[C@](C)(OC(C)=O)C(=O)C2=CN1CCc1cccc(C(F)(F)F)c1 | 35.93% | –
28 | CC[C@H](C)/C=C(C)/C=C/C1=CC2=C(Cl)C(=O)[C@](C)(O)C(=O)C2=CN1Cc1ccc(C(F)(F)F)cn1 | 10.55% | –
